Data: EP2444396A1, “PHOTOPROTECTIVE COMPOSITION” (Apoteknos Para La Piel, S.L., priority 2009, dated 2010)
Converted amounts (≈) assume the structure as drawn. Marks after values point to notes of the source that are not given here.

How the values were obtained:
[1] = UV spectrum: wavelengths of maximum absorption and absorbance (Cecil 2021 UV-Visible Spectrophotometer); format: physicochemical
[2] = Solubility in organic solvents; format: physicochemical; details: methanol, organic solvent or mixture, thermodynamic from solid; MeOH
[3] = Photostability evaluation (irradiation in MeOH, TLC analysis); format: physicochemical; details: saturated solution in 200 mL MeOH, 2 hours of irradiation, isolated by column chromatography
Experimental: All the irradiations preformed in the photostability studies were carried out in an ACE 7840 photoreactor using a 450W power ACE 7825 lamp.
The solvent used in the photostability test was methanol [MeOH] (ppa) (250 mL), using a concentration of […] of p-nitrolophine. The solution was irradiated for 2 hours, samples being taken at 10 minutes, 20 minutes, 1 hour and 2 hours, and being dried in a rotating evaporator. Each sample was analyzed by thin layer chromatography (TLC in Silica gel) using petroleum ether:ethyl acetate (4:1) as eluent. The chromatography plates were viewed under a 254 nm lamp and a 366 nm lamp, as well as by means of simultaneous viewing under both lamps (254 and 366 nm).
Specifically, three photoproducts (three blots) could be determined, which were isolated by preparative TLC.
A saturated solution of m-nitrolophine in MeOH was prepared to perform the study since the solubility in this solvent is low (approximately 0.2 mg/mL). Briefly, an amount of m-nitrolophine sufficient to ensure the saturation in 200 mL of MeOH throughout the night was left stirring. The solution was filtered and irradiated for 2 hours, samples of 10 mL being taken at 10 minutes, 20 minutes, 1 hour and 2 hours, and being dried in rotating evaporator. […]

[4] = system: MCF-7 breast cancer cell line; test: E-Screen cell proliferation test; format: cell-based, human; details: MCF-7 cells; for Proliferative effect (PE) Mean: 144 hours, negative control = 1
Text: The E-Screen proliferation test is based on the use of MCF-7 breast cancer cell line. The MCF-7 cells [which endogenously expressed the estrogen receptor alpha (ERα)], respond to the treatment with estradiol increasing its proliferative rate, synthesizing new proteins and transcribing certain specific genes. […] The test compares the number of cells or the cell proliferation obtained after 6 days of culture. The cells grow in culture medium supplemented with human serum lacking of estrogens, in the presence and/or absence of estradiol as well as of the chemical compounds suspected of having estrogenic activity. The E-Screen test was performed following the methodology previously described by Soto et al. ["An in culture bioassay to assess the estrogenicity of xenobiotics. […] Health Perspect. 103:844-850; 1995]. […] The assay was ended after 144 hours of subculture (exponential phase) after drawing out the medium and fixing the cells for the application of sulforhodamine-B technique. Finally, the cell growth for each experimental group is related to the growth obtained for the negative control (absence of hormone) and with respect to estradiol (positive control). Once the E-Screen test is performed, the maximum cell proliferation rate induced by the compound also known as proliferative effect (PE) was established by calculating the ratio existing between the maximum proliferation rate obtained for the compound and the proliferation rate of the negative control. The proliferation data corresponding with the successive dilutions of the compound were transformed after the application of the correction factor for the dilution of each experimental point, the arithmetic mean of the data obtained being calculated. Another parameter is the relative proliferative efficiency (RPE). […] In this assay, the estrogenicity E-Screen test commonly used to identify the hormonal activity of compounds interacting specifically with the estrogen receptor alpha (ERα), has been used. The assays were performed in triplicate for each concentration (range: 300-0.003 µg/ml) in at least three independent experiments.

[5] = system: Erythema induced by UVB radiation in mouse; test: Photoprotection: erythema induced by UVB radiation in mouse skin; format: in vivo; set-up: key to Erythema induced by UVB radiation in mouse: presence (+); absence (-); details: 0.5% gel topical, about 2.5 kJ/m^2 UVB, 24 hours after exposure; for % Protection: percentage of protected animals
Text: The effect of p-nitrolophine and m-nitrolophine on erythema due to exposing the mouse skin to an irradiation source at maximum in the UVB region has been studied in these assays. The results obtained have been compared with the effect of 4-methylbenzylidene camphor (P5000) a substance considered as a UVB solar filter and with the effect of butyl methoxydibenzoylmethane (P1789) an UVA type filter, both products being commonly used in antisolar cosmetics.
35 male mice weighing more than 20 grams have been used. After receiving them, the animals were acclimated for 7 days at the place where the assays were preformed, they were being placed in a cage with controlled temperature (22°C), with relative humidity between 50% and 75%, replacing fresh filtered air approximately 10 times per hour and with 12 h light/dark cycles (7.00 - 19.00 light and from 19.00 to 7.00 dark). For this period and during the experimental period, the animals were fed ad libitum with standard diet for rodents and running water as drink.
The animals were randomly distributed into 4 experimental groups according to Table 7. The products to be tested were directly used, applying them in the form of a gel on an area of the skin such that each animal form its own control.
The test was performed following the method described by Winder et al. ["A study of Pharmacological influences on ultraviolet erythema in guinea pigs". Arch. Int Pharmacodyn, 116:261-292; 1958] and by other authors [Wendy et al. "The local antinociceptive and topical antiinflamatory effects of propyl gallate in rodents". Br. J. Pharmacol, 58:573 -581; 1976; Katiyar et al. "Protective Effects of Silymarin Against Photocarcinogenesis in a Mouse Skin Model". J Natl Cancer Inst 89:556-65; 1997] with slight modifications. The day […] the assay, as much hair as possible were removed from the animals by applying a layer of commercial hair-removing cream to remove all the trace of hair and to leave the skin of the back completely bare. The rest of the hair-removing cream were removed by means of washing and rinsing with running water and the animals were the returned to their corresponding cages where they remained until the following day.
On the day of the assay, the substances to be assayed were blindly applied on the back of the previously labelled animals following a random pattern (randomized). After applying the corresponding treatments, the animals were placed and pinned to the presentation platform of the equipment. The animals were then placed 8 cm from an ultraviolet light source of 4*40w with 313 nm of fundamental emission and a range comprised approximately between 290 and 350 nm and with an anti-UVC filter. The emission spectrum of said light source is depicted in Figure 1.
The exposure was maintained until all the animals have received an approximate total dose of 2.5 kJ/m^2. The dose of irradiation applied was determined by means of a ultraviolet light detector, the response curve of which is shown in Figure 2.
Twenty four hours after ending the exposure, the back of the animals was photographed and they were returned to their cages. The evaluation of erythema was performed by means of a positive/negative criterion, the percentage of protected animals being obtained. The statistic significance of the difference was evaluated by means of the non-parametric Fisher Test.

[6] = Absorption spectrum in methanol (195 - 400 nm); format: physicochemical; details: peak wavelength, 10 mg/ml
Experimental: In order to determine the absorption spectrum, a solution of 10 mg/ml of methanol was prepared from each of the substances. The methanol in turn was used to adjust the zero absorbance in each of the wavelengths in the range of 195 - 400 nm.

[7] = system: Erythema induced by UVB radiation in mouse; test: Photoprotection: erythema induced by UVB radiation in mouse skin; format: in vivo; details: intensity of erythema in application area versus surrounding non treated area (subjective criterion); 0.5% gel topical; listed as m-nitrotophine

UV spectrum A (a.u) ([1]; absorbance at the maximum of the same line): 1.194 a.u | UV spectrum λ (nm) ([1]; wavelengths of the maximum absorption): 309.0 nm | solubility [2]: ~200 µg/mL (≈ 586 µM) | photodecomposition product [3]: 5.7 mg | maximum absorption [6]: 309 nm
SMILES: O=[N+]([O-])c1cccc(-c2nc(-c3ccccc3)c(-c3ccccc3)[nH]2)c1 [m-nitrolophine, 2-(3-nitrophenyl)-4,5-diphenyl-1H-imidazole]
estrogenicity ([4]; E-Screen, conclusion in words): not an estrogenic compound for the receptor alpha | Proliferative effect (PE) Mean ([4]; 3x10^-1 mg/ml): 1.45 | Proliferative effect (PE) Mean ([4]; 3x10^-2 mg/ml): 1.30 | Proliferative effect (PE) Mean ([4]; 3x10^-3 mg/ml): 1.19 | Proliferative effect (PE) Mean ([4]; 3x10^-4 mg/ml): 1.10 | Proliferative effect (PE) Mean ([4]; 3x10^-5 mg/ml): 1.08 | Proliferative effect (PE) Mean ([4]; 3x10^-6 mg/ml): 1.06 | proliferative effect ([4]; all the tested concentrations range (300-0.003 µg/ml)): lower than 1.5 | Erythema induced by UVB radiation in mouse ([5]; individual animals No. 1-10): - | % Protection [5]: 100% | % Protection ([5]; listed as m-nitrotophine): 100%* | % Suppression [7]: 60 - 80%*
